The results in this text go back to ChEMBL document CHEMBL1201862, “PubChem BioAssay data set” (2004).

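Compound exposure: 48 hours, 5 concentrations, 96-well plates. Here, GI50 denotes the concentration required for 50% inhibition of growth.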 The source made the active and inactive calls. Rule as the data show it: active = GI50 up to about 1.1 µM and inactive = higher.

Common to all, as to assay: DTP human tumour cell line panel, 48 h
Test [1] has as its system OVCAR-3.
Test [2] has as its system SK-MEL-5.
Test [3] concerns LOX IMVI.
For test [4], the system named is ACHN.
Test [5] has as its system MDA-MB-435.
For test [6], the system named is NCI-H23.
The subject of test [7] is NCI/ADR-RES.
In test [8] the test system is HL-60.
Test [9] has as its system MDA-MB-231.
The subject of test [10] is NCI-H460.
The test system of test [11] is OVCAR-5.
Test [12] has as its system DU-145.
Test [13] deals with TK-10.
The test system of test [14] is MCF7.
The subject of test [15] is SNB-19.
Test [16] concerns HCC 2998.
Test [17] deals with EKVX.
The subject of test [18] is T47D.
The test system of test [19] is RPMI-8226.

Broadly, the GI50 is the concentration at which growth is held to half of that of the control. In the case of `O=c1[nH]c(Nc2nc3ccccc3[nH]2)nc2c1CCC2`, the GI50 in test [1] was > 100 µM (inactive); in test [2] it was > 100 µM (inactive); in [3], > 100 µM (inactive); in test [4], > 100 µM (inactive); in test [5], > 100 µM (inactive); in [6], 74.3 µM (inactive). For the same compound, the GI50 in [7] was > 100 µM (inactive); in test [8] it was > 100 µM (inactive); in test [9] it was 14.8 µM (inactive); in test [10], > 100 µM (inactive); in test [11], > 100 µM (inactive); in test [12] it was > 100 µM (inactive). Besides, the GI50 in test [13], in test [14], in test [15] and in [16] was > 100 µM (inactive) throughout.
For `C=C1CC[C@]2(C)[C@H](CC[C@@]34C[C@@H](CC[C@H]32)[C@@H](C(=O)O)C4)C1(C)C`, the GI50 in test [17] was > 12.5 µM (inactive); in test [1], > 12.5 µM (inactive); in test [2] it was 8.24 µM (inactive); in test [3] it was > 12.5 µM (inactive); in test [4] it was 8.63 µM (inactive); in [5], > 12.5 µM (inactive). The GI50 in test [6] was > 12.5 µM (inactive); in [7], > 12.5 µM (inactive); in [8], 4.7 µM (inactive); in test [9], > 12.5 µM (inactive); in test [10] it was 5.19 µM (inactive); in test [11], > 12.5 µM (inactive). In addition, the GI50 in [13], in test [14] and in test [15] was > 12.5 µM (inactive) each time.
For the compound `CCOC(=O)C1(C)CCc2sc(N)c(C#N)c21` (stereo not drawn), the GI50 in test [18], in test [17], in test [2], in test [4], in test [6] and in test [19] was > 100 µM (inactive) throughout. In addition, the GI50 in test [8], in test [9], in test [10], in test [11], in test [13] and in test [14] was > 100 µM (inactive) throughout. The GI50 in [15] and in test [16] was > 100 µM (inactive) in each case.
Consider `OC(CC(c1ccccc1)c1ccc(Cl)cc1)c1ccc(Cl)cc1` (stereo not drawn), for which the GI50 in test [18] was 32.6 µM (inactive); in test [17], 30.5 µM (inactive); in test [1], 33.6 µM (inactive); in test [2], 32 µM (inactive); in test [3], 27.9 µM (inactive); in [4] it was 27.1 µM (inactive). Moreover, the GI50 in [5] was 27.4 µM (inactive); in test [6], 29.7 µM (inactive); in [7], 33.5 µM (inactive); in test [19], 26.9 µM (inactive); in test [8] it was 24.9 µM (inactive); in test [10], 30.1 µM (inactive). For the same compound, the GI50 was 24.3 µM (inactive) in test [11]; 44.9 µM (inactive) in test [12]; 38 µM (inactive) in [13]; 28.4 µM (inactive) in test [14]; 45.2 µM (inactive) in test [15]; 45.5 µM (inactive) in [16].
As for `COc1cc(/C=C2\S/C(=N/Nc3nc(-c4ccc(Br)cc4)cs3)NC2=O)cc(OC)c1OC`, the GI50 is 7.8 µM (inactive) in test [17]; 13.6 µM (inactive) in [1]; 5.02 µM (inactive) in [2]; 9.29 µM (inactive) in test [3]; 11 µM (inactive) in test [4]; 15.5 µM (inactive) in test [5]. Also, the GI50 was 5.11 µM (inactive) in test [6]; 15.9 µM (inactive) in test [7]; 2.08 µM (inactive) in test [8]; 14.3 µM (inactive) in test [9]; 11.9 µM (inactive) in test [10]; 18.2 µM (inactive) in test [11]. Moreover, the GI50 is 19.3 µM (inactive) in test [12]; 12 µM (inactive) in [13]; 15.4 µM (inactive) in test [14]; 4.74 µM (inactive) in [15]; 16.3 µM (inactive) in test [16].
For `CCCCCCCCCCCCC/C=C(/COCC[N+](C)(C)C)OC(C)=O.CCCCCCCCCCCCCC/C(=C/OCC[N+](C)(C)C)OC(C)=O`, the GI50 in test [17] is 3.1 µM (inactive); in test [1], 1.61 µM (inactive); in [2], 2.54 µM (inactive); in [3], 0.377 µM (active); in test [4], 1.65 µM (inactive); in test [5], 2.58 µM (inactive). The GI50 in [6] was 1.9 µM (inactive); in test [7] it was 17.6 µM (inactive); in test [19], 1.3 µM (inactive); in test [8] it was 1.64 µM (inactive); in test [9], 1.78 µM (inactive); in test [10], 0.63 µM (active). The GI50 is 2.44 µM (inactive) in test [11]; 4.97 µM (inactive) in [12]; 1.48 µM (inactive) in [13]; 1.9 µM (inactive) in [14]; 1.47 µM (inactive) in [15]; 4.04 µM (inactive) in [16].
`COc1ccc(C2=NN(C(=N)S)C(c3ccccc3)C2)cc1` (stereo not drawn): the GI50 was 29.9 µM (inactive) in test [18]; 35.9 µM (inactive) in [17]; 35.6 µM (inactive) in [1]; 16.7 µM (inactive) in [2]; 38.3 µM (inactive) in [3]; 36.9 µM (inactive) in test [4]. Besides, the GI50 is 31 µM (inactive) in [5]; 34 µM (inactive) in test [6]; 34.5 µM (inactive) in test [7]; 23.6 µM (inactive) in test [19]; 18.2 µM (inactive) in test [8]; 30 µM (inactive) in test [10]. In addition, the GI50 was 58.2 µM (inactive) in test [11]; 53.6 µM (inactive) in test [12]; 37.8 µM (inactive) in test [13]; 22.5 µM (inactive) in [14]; 51.8 µM (inactive) in [15]; 44.8 µM (inactive) in test [16].
In the case of `NCCC(=O)N[C@@H](Cc1cc(O)c(O)c(SCC(NC(=O)CC[C@H](N)C(=O)O)C(=O)NCC(=O)O)c1)C(=O)O` (stereo partly drawn), the GI50 in test [17], in [1], in test [4], in [5], in test [6] and in [7] was > 50 µM (inactive) throughout. For the same compound, the GI50 in test [19], in test [9], in [10], in [11], in [12] and in test [13] was > 50 µM (inactive) each time. For the same compound, the GI50 in test [14], in test [15] and in test [16] was > 50 µM (inactive) each time.
In the case of `CCCCOC(=O)c1cc(C(=CCC[C@H]2CC[C@@]3(C)[C@@H](CC[C@@H]4[C@@H]3CC[C@]3(C)[C@@H](C(C)CCCC(C)C)CC[C@@H]43)C2)c2cc(Cl)c(O)c(C(=O)OCCCC)c2)cc(Cl)c1O` (stereo partly drawn), the GI50 in [18], in test [17], in [1], in test [2], in test [3] and in test [5] was > 50 µM (inactive) in each case. In addition, the GI50 in [6], in [7], in [19], in test [8], in test [9] and in test [10] was > 50 µM (inactive) in each case. Also, the GI50 in test [12], in test [15] and in test [16] was > 50 µM (inactive) each time.
Turning to `C=C(C)[C@@H]1CC[C@]2(COC(C)=O)CC[C@]3(C)[C@H](CC[C@@H]4[C@@]5(C)CC[C@H](OC(C)=O)C(C)(C)[C@@H]5CC[C@]43C)[C@@H]12` [BETULIN DIACETATE], the GI50 in test [1] was 3.01 µM (inactive); in [2] it was > 50 µM (inactive); in test [3], > 50 µM (inactive); in test [4] it was > 50 µM (inactive); in test [5] it was > 50 µM (inactive); in test [6], > 50 µM (inactive). Further, the GI50 in test [7] is > 50 µM (inactive); in test [19], > 50 µM (inactive); in test [8] it was > 33.1 µM (inactive); in test [15], > 50 µM (inactive); in test [16], 0.857 µM (active).
Consider `O=C1CN(c2cccc(Cl)c2)C(=O)CN1CCN1CC(=O)N(c2cccc(Cl)c2)CC1=O`, for which the GI50 is > 100 µM (inactive) in [17]; > 100 µM (inactive) in test [1]; > 100 µM (inactive) in test [2]; > 100 µM (inactive) in test [4]; > 100 µM (inactive) in test [5]; 26.4 µM (inactive) in test [6]. Moreover, the GI50 in test [19], in test [8], in [10], in [11], in test [12] and in [13] was > 100 µM (inactive) each time. Moreover, the GI50 in test [14], in test [15] and in test [16] was > 100 µM (inactive) throughout.
For `CCOC(=O)c1c(NS(=O)(=O)c2ccccc2)sc2c1CCCC2`, the GI50 was 47.8 µM (inactive) in [18]; 48.4 µM (inactive) in [17]; 22.5 µM (inactive) in test [1]; 74.5 µM (inactive) in test [2]; 64.6 µM (inactive) in test [4]; > 100 µM (inactive) in test [6]. Moreover, the GI50 in test [7] is 62.1 µM (inactive); in test [19] it was 26.9 µM (inactive); in test [8], 57.5 µM (inactive); in test [9], > 100 µM (inactive); in test [10], > 100 µM (inactive); in test [11], > 100 µM (inactive). The GI50 was 89.5 µM (inactive) in test [12], 62.8 µM (inactive) in test [13], 46.7 µM (inactive) in [14] and 93.1 µM (inactive) in test [15].
